1 substance from PMC10949195, “Exponential Combination of a and e/g Intracellular Peptide Libraries Identifies a Selective ATF3 Inhibitor” (ACS Chemical Biology, 2024) can be followed below.

Series [1] deals with T1, ATF3 (Homo sapiens, UniProt P18847).
T1 construct: We focus on the selective targeting of the ATF3 leucine zipper dimerization domain using intracellular peptide library screening; made in house; host or cells: chemical solid-phase peptide synthesis (no expression host)
T1 sequence (P18847 110-143): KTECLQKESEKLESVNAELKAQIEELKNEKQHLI
The series is described as follows: CD thermal denaturation of peptide mixed 1:1 with ATF3. Format: binding. Conditions: peptide incubated with ATF3; CD signal at 222 nm, 1 °C increments; 150 μM total peptide; 10 mM potassium phosphate, 100 mM potassium fluoride, pH 7.0; two-state denaturation model. From the text:
(§1) Following the observed significant increase in global secondary structure content for the ATF3-ATF3W_aeg complex relative to component peptides (Figure 6), we next analyzed the stability of the complex by undertaking thermal denaturation experiments (Figure 7). […] Moreover, consistent with spectral data, the clear increase from the average profile of the component peptides relative to that of the measured is most pronounced in the combined construct (Figure 7, red hash vs black). This provides robust additional evidence for a preferential interaction between ATF3 and ATF3W_aeg that is improved over either the core a or electrostatic e/g constructs.
Shown are thermal stabilities of peptide pairs measured via temperature dependence of the CD signal at 222 nm. The thermal denaturation profiles for (a) ATF3-ATF3W_a, (b) ATF3-ATF3W_eg, and (c) ATF3-ATF3W_aeg show a substantial increase in the transition midpoint (Tm = 59 °C) relative to component peptides (black vs red hash). Experiments were performed in 10 mM potassium phosphate and 100 mM potassium fluoride (pH 7.0). All spectra were recorded at 1 °C increments at a total peptide concentration of 150 μM and fitted to a two-state denaturation model.
Thermal denaturation experiments were performed at 150 μM total protein concentration in 10 mM potassium phosphate and 100 mM potassium fluoride, pH 7, using an Applied Photophysics Chirascan CD instrument (Leatherhead, UK) as previously described.[23]

Series [2] has as its target T1, ATF3. Nature of the series: Isothermal titration calorimetry (ITC). The format is binding. The note with it: 20 °C, pH 7.0. How it is done:
To provide additional insight into the origin of the binding affinity (KD) between ATF3 and ATF3W_aeg, isothermal titration calorimetry (ITC) experiments were performed. […] The free energy of binding was predominantly driven by a favorable enthalpic term (ΔH = −14.6 kcal/mol) and opposed by an unfavorable entropic component (TΔS= −5.33 kcal/mol).
Figure 9 Isothermal titration calorimetry analysis of the ATF3-ATF3W_aeg interaction. In the bottom plot, the solid line represents the fit to the data based on the binding of a ligand to a macromolecule using the MicroCal (GE Healthcare) Origin software.[16] See Materials and Methods for further details.
ITC measurements were made using a Microcal PEAQ-ITC instrument with data collected and processed using the Origin 7.0 software package.[14],[23] All measurements were carried out at least twice. Briefly, all peptides were studied at 20 °C in 10 mM potassium phosphate and 100 mM potassium fluoride at pH 7.0. 40 μL of ATF3W_aeg was loaded into the syringe at 60 μM peptide concentration. 350 μL of ATF3 was loaded into the cell at 6 μM. The experiment was undertaken by injecting 2 μL of ATF3W_aeg 19 times into the calorimetric cell. Following ITC measurements, the data were fit to a one-site model.
(In general: ITC needs no label: the signal is the heat of the interaction.)

Series [3] concerns the target T1, ATF3. The series is described as follows: Size-exclusion chromatography of ATF3-ATF3W_aeg mixture. The note with it: Superdex Peptide 10/300 GL, RT; 20 μM total peptide. The format is binding. The method, then: During SEC experiments, monomeric ATF3 (Figure 8, blue line) and ATF3W_aeg (Figure 8, green line) eluted at approximately 20 min. These contrast with the dimeric profile observed for ATF3-ATF3W_aeg (Figure 8, black line), which occurred at approximately 19 min. For all samples, elution profiles were consistent with either a validated monomer or dimer elution pattern.[15]
Figure 8 SEC profiles indicate that ATF3W_aeg binds ATF3. Shown are size exclusion chromatography profiles for interacting peptides. The peak at approx 19 min for the ATF3-ATF3W_aeg mixture (black trace) represents a dimeric sample while ATF3 (blue trace) and ATF3W_aeg (green trace) generate a peak at approx 20 min, indicating the presence of a monomer. These experiments, undertaken at a total peptide concentration of 20 μM, provide additional evidence for selectivity of the ATF3-ATF3W_aeg interaction. Arrows show controls from previous peptides with elution times for a 32 mer Fos monomeric peptide (20 min) and a 37 mer cJun–FosW heterodimer (18.5 min).[15]
Size-exclusion experiments were performed at RT using a Superdex Peptide 10/300 GL column (GE Healthcare Life Sciences) as described previously.[23]

In series [4] the test system is M2 macrophages differentiated from the human THP-1 monocytic cell line. Nature of the series: THP-1 polarization assay and CCL-4 ELISA. Format: cell-based. The note with it: M2 macrophages from THP-1 (IL-4 polarized); 20 μM peptide with NLS-TAT appendage; 48 h; versus untreated. An excerpt: ATF3 is a transcriptional repressor that regulates both the extent and duration of pro-inflammatory gene expression.[17] Specifically, ATF3 has been implicated in the transcriptional repression of chemokines including chemokine (C–C motif) ligand 4 (CCL4),[18] also known as macrophage inflammatory protein (MIP-1β), which promotes recruitment of additional immune cells to inflamed tissues. In the context of cancer, ATF3 activity counters antitumor immunity and promotes tumor growth. We therefore explored the effect of the ATF3W-aeg antagonist peptide on CCL4 expression in M2 anti-inflammatory macrophages differentiated from the human THP-1 monocytic cell line. […]
Figure 10 ATF3W-aeg peptide stimulates expression of pro-inflammatory cytokine in M2 macrophages. CCL4 protein levels were measured by ELISA from supernatants of M2 macrophage cultures treated with either 20 μM ATF3W-aeg or negative control peptide (****p < 0.0001). […]
THP-1 cells were seeded in 12-well format at a concentration of 5 × 10^5 cells/well and treated with 7.5 ng/mL Phorbol 12-Myristate 13-Acetate (PMA, Sigma-Aldrich) in RPMI media supplemented with 10% FBS and 55 μM β-mercaptoethanol (BME). […] After 48 h, supernatants were collected and clarified by centrifugation, and the CCL-4 concentration was assessed by ELISA (MIP-1b Human Instant ELISA Kit, ThermoFisher Scientific) according to the manufacturer’s protocol.

The nature of series [5]: CD thermal denaturation of peptide in isolation. The format is physicochemical. The note with it: CD at 222 nm; 150 μM total peptide; 10 mM potassium phosphate, 100 mM potassium fluoride, pH 7.
Excerpt: as §1
Shown are thermal stabilities of peptide pairs measured via temperature dependence of the CD signal at 222 nm. The thermal denaturation profiles for (a) ATF3-ATF3W_a, (b) ATF3-ATF3W_eg, and (c) ATF3-ATF3W_aeg show a substantial increase in the transition midpoint (Tm = 59 °C) relative to component peptides (black vs red hash). Experiments were performed in 10 mM potassium phosphate and 100 mM potassium fluoride (pH 7.0). All spectra were recorded at 1 °C increments at a total peptide concentration of 150 μM and fitted to a two-state denaturation model. […]

For “Ac-ELAALEQKAYALKQENAALEKEVAALEQKIAALK-NH2 (N-terminus and C-terminus assumed) [ATF3W_aeg]”, the “transition midpoint (Tm) of heterodimer with ATF3” value at ATF3 [1] stood at 60 °C. Also, on ATF3 [2], the “N (sites), stoichiometry of binding to ATF3” value is on record as 0.72; the “TΔS of binding to ATF3” value was -5.33 kcal/mol; the “ΔG of binding to ATF3” value was -9.31 kcal/mol; the “ΔH of binding to ATF3” value is -14.6 kcal/mol. At ATF3 [3], the “SEC elution time of ATF3-ATF3W_aeg mixture” value is recorded as “approximately 19 min” and the “oligomeric state of ATF3-ATF3W_aeg interaction by SEC” value is “exclusively dimeric”. For the same substance, in series [4], the “effect on CCL4 expression (protein in supernatant, ELISA)” value is given as “significantly increased CCL4 expression”. The “self-association in isolation (thermal denaturation profile)” value in series [5] is listed as “inability of ATF3W_aeg to form a stable homodimer in isolation”.
